# Reference: patent US9669051B2, “Dietary fiber compositions with metformin, sitagliptin, or a combination thereof for the treatment of metabolic disease” (Inovobiologic Inc., priority 2012, dated 2017)
# Columns and labels:
# Zucker FA/FA Rat Model [1] = assay: Example 7: hemoglobin glycosylation (HbA1c); assay type: in vivo
# Protocol: The extent of hemoglobin glycosylation was determined using a clinical analyzer (e.g., Bayer DCA2000). Blood samples for analysis were collected via tail nick.
# Zucker FA/FA Rat Model [2] = assay: Example 7: clinical chemistry of terminal blood sample; assay type: in vivo
# Protocol: (§1) A blood sample was collected via retroorbital bleed (under isoflurane anesthesia) during the takedown phase. A portion of this sample was tested for lipid concentrations (total, LDL, and HDL cholesterol and triglycerides) using an analyzer (e.g., Polymer Technology Systems CardioChek PA). Plasma was separated by centrifugation and flash-frozen for DPPIV activity determination. The remainder was prepared for comprehensive clinical chemistry analysis.
# Zucker FA/FA Rat Model [3] = assay: Example 7: fasted oral glucose tolerance test (OGTT), glucose and serum insulin; assay type: in vivo; conditions: week 6, 16 h fasted
# Excerpt: The remainder of the sample was allowed to clot, and centrifuged to separate serum. Serum samples were frozen for insulin analysis.
# Zucker FA/FA Rat Model [4] = assay: Example 7: non-fasted and 16 h fasted blood glucose; assay type: in vivo
# Protocol: Glucose concentrations were determined using a hand-held glucose meter (e.g., Bayer Asencia Elite). Blood was collected via tail nick following sitagliptin administration; one sample was collected when food was available for the previous 24 hours (non-fasted), and one sample was collected on another day when food was not available overnight (16 h fasted).
# Zucker FA/FA Rat Model [5] = assay: Example 7: body composition by dual-energy X-ray absorptiometry (DEXA); assay type: in vivo
# Protocol: Body composition was measured using dual-energy X-ray absorptiometry (DEXA) of the carcasses at the end of the study (i.e., after a limited necropsy for histopathology samples). The primary endpoints were fat mass, lean mass and bone mineral density. Tissue composition (i.e., % body fat) and fat free mass were also reported, but the information on these measurements was redundant with other measures.
# Zucker FA/FA Rat Model [6] = assay: Example 7: lipid determinations; assay type: in vivo; conditions: finding in words, with reference to the cellulose control; listed as JANUVIA alone
# Protocol: as §1
# Zucker FA/FA Rat Model [7] = assay: Example 7: body weight and food consumption; assay type: in vivo
# Protocol: 44 young adult (9 week old) male rats (Zucker ZDF/Crl-Lepr^fa/fa), were obtained from Charles River Laboratories, Kingston, N.Y. […] The rats were housed in cages which conformed to size standards in Guide for the Care and Use of Laboratory Animals (Nat'l Res. Council, 1996). Bedding was changed at least twice per week. The animals were maintained at a temperature range of 18-22° C., humidity 44-68%, and a photoperiod of 12 hour light/dark cycle. The rats were acclimated for 4 days prior to the start of the study. Each animal was given a sequential number and was uniquely identified with a stainless steel ear tag or other appropriate, permanent method. Morbidity and mortality checks were carried out twice daily during the study. The animals were randomly assigned to one of four groups: (1) Control 5% cellulose fiber/chow [C]; (2) 5% PGX/chow [PGX]; […] Filtered tap water was available ad libitum. The test diets were nearly isoenergetic (PGX diet provided 3.98 kcal/g and cellulose diet provided 3.90 kcal/g). […] Sitagliptin was administered in the morning, with samples and data collected after treatment.
# Zucker FA/FA Rat Model [8] = assay: Example 7: necropsy histopathology of liver, kidney and pancreas; assay type: in vivo; conditions: week 7 necropsy
# Protocol: Rats were fasted overnight and given their regular sitagliptin treatment in the morning. Following the in-life procedures, rats were anesthetized with isoflurane, and a blood sample was collected via cardiac puncture. No peptidase inhibitors were used. Following sample collection, a limited necropsy was performed. A section of ileum (approximately one inch, collected one inch rostral to the cecum) was rinsed in chilled saline and flash frozen; this sample was analyzed for DPPIV mRNA. One kidney was flash-frozen for DPPIV mRNA analysis; one liver lobe was flash frozen for DPPIV activity and mRNA analysis. The pancreas (collected as a pancreatic pluck, with associated tissue including the remainder of the intestine), one liver lobe and one kidney were post-fixed for staining with hematoxylin and eosin. One liver lobe was snap-frozen for staining with Sudan Black. The tissue samples were forwarded to Histo-Scientific Research Laboratories Inc. (Mount Jackson, Va.) for histological processing and for pathological evaluation by a board-certified pathologist. The pathology analysis was based on the gross and microscopic evaluation of the liver (two lobes), right kidney and pancreas from 39 male rats.
# [9] = in words; cited from earlier work
# [10] = finding in words, with reference to the cellulose control
# [11] = finding in words, with reference to the cellulose control, listed as JANUVIA alone
structure (smiles),measurement,setting,value
"N[C@@H](CC(=O)N1CCn2c(nnc2C(F)(F)F)C1)Cc1cc(F)c(F)cc1F [Cellulose-JANUVIA, (R)-4-oxo-4-[3-(trifluoromethyl)-5,6-dihydro[1,2,4]triazolo[4,3-a]pyrazin-7(8H)-yl]-1-(2,4,5-trifluorophenyl)butan-2-amine]",Hemoglobin glycosylation,Zucker FA/FA Rat Model [1]; Baseline,4.4 ± 0.1%
same,Hemoglobin glycosylation,Zucker FA/FA Rat Model [1]; Week 6,6.8 ± 0.4%
same,Serum ALT/SGPT (terminal),Zucker FA/FA Rat Model [2]; [10],tended to decrease ALT activity
same,Serum albumin (terminal),Zucker FA/FA Rat Model [2]; [10],did not increase albumin concentrations
same,Serum alkaline phosphatase (terminal),Zucker FA/FA Rat Model [2]; [10],significantly reduced alkaline phosphatase activity
same,total serum protein (terminal),Zucker FA/FA Rat Model [2]; [10],did not increase total protein concentrations
same,blood urea nitrogen (terminal),Zucker FA/FA Rat Model [2]; [11],tended to decrease BUN
same,Calcium,"Zucker FA/FA Rat Model [2]; terminal blood sample, week 7",11.2 ± 0.2 mg/dL
same,Creatine kinase,"Zucker FA/FA Rat Model [2]; terminal blood sample, week 7",76.3 ± 12.8 IU/L
same,Phosphorus,"Zucker FA/FA Rat Model [2]; terminal blood sample, week 7",6.0 ± 0.2 mg/dL
same,OGTT serum insulin Baseline,Zucker FA/FA Rat Model [3]; before glucose,6.6 ± 1.1 ng/mL
same,OGTT blood glucose Baseline,Zucker FA/FA Rat Model [3]; before glucose 1 g/kg PO,331 ± 16.4 mg/dL
same,"OGTT serum insulin AUC(0-120), baseline-subt",Zucker FA/FA Rat Model [3]; glucose 1 g/kg PO,-3.0 ± 22.7 ng·h/dL
same,16 h fasted blood glucose,Zucker FA/FA Rat Model [4]; Baseline,98.4 ± 5.4 mg/dL
same,Non-fasted blood glucose,Zucker FA/FA Rat Model [4]; Baseline,231.8 ± 31.2 mg/dL
same,16 h fasted blood glucose,Zucker FA/FA Rat Model [4]; Week 6,331.1 ± 16.4 mg/dL
same,Non-fasted blood glucose,Zucker FA/FA Rat Model [4]; Week 6,500.9 ± 17.4 mg/dL
same,Fat free mass,Zucker FA/FA Rat Model [5]; DEXA at end of study,133.0 ± 5.6 g
same,Tissue composition (% fat),Zucker FA/FA Rat Model [5]; DEXA at end of study,63.3 ± 0.9 % fat
same,Lean Mass (terminal),Zucker FA/FA Rat Model [5]; [11],did not show an effect on lean body mass
same,total cholesterol (week 7),Zucker FA/FA Rat Model [6],not effective to lower blood cholesterol
same,Baseline body weight,Zucker FA/FA Rat Model [7]; Baseline,297.9 ± 3.7 g
same,Mean food consumption,Zucker FA/FA Rat Model [7]; averaged for each rat over the study,22.9 ± 0.7 g/day
same,Week 7 body weight,Zucker FA/FA Rat Model [7]; week 7,411.0 ± 16.1 g
same,"Kidney: degeneration/regeneration, tubules, group incidence",Zucker FA/FA Rat Model [8]; animals affected/examined,9/9
same,"Kidney: dilatation, tubules, group incidence",Zucker FA/FA Rat Model [8]; animals affected/examined,9/9
same,"Kidney: dilation, renal pelvis, group incidence",Zucker FA/FA Rat Model [8]; animals affected/examined,9/9
same,"Kidney: inflammation, renal pelvis, group incidence",Zucker FA/FA Rat Model [8]; animals affected/examined,2/9
same,"Kidney: mesangial expansion, group incidence",Zucker FA/FA Rat Model [8]; animals affected/examined,9/9
same,"Kidney: mineralization, renal pelvis, group incidence",Zucker FA/FA Rat Model [8]; animals affected/examined,2/9
same,"Liver: Sudan black positive hepatocytes, group incidence",Zucker FA/FA Rat Model [8]; animals affected/examined,9/9
same,"Liver: cystic hepatocytes degeneration with fibrosis, group incidence",Zucker FA/FA Rat Model [8]; animals affected/examined,1/9
same,"Liver: hepatic focal infarction, group incidence",Zucker FA/FA Rat Model [8]; animals affected/examined,1/9
same,"Liver: vacuolation, hepatocytes, macrovesicular, group incidence",Zucker FA/FA Rat Model [8]; animals affected/examined,7/9
same,"Liver: vacuolation, hepatocytes, microvesicular, group incidence",Zucker FA/FA Rat Model [8]; animals affected/examined,9/9
same,"Pancreas: fibrosis, islets, group incidence",Zucker FA/FA Rat Model [8]; animals affected/examined,9/9
same,"Pancreas: hemorrhage/hemosiderin, islets, group incidence",Zucker FA/FA Rat Model [8]; animals affected/examined,9/9
same,"Pancreas: hypertrophy, islets, group incidence",Zucker FA/FA Rat Model [8]; animals affected/examined,9/9
same,"Pancreas: islet cell degeneration, group incidence",Zucker FA/FA Rat Model [8]; animals affected/examined,9/9
same,"Pancreas: mononuclear cell infiltrate, islets, group incidence",Zucker FA/FA Rat Model [8]; animals affected/examined,9/9
same,Pancreas: percent of islet area containing positive insulin positive cells,Zucker FA/FA Rat Model [8]; group average,40%
same,"Liver: Sudan black positive hepatocytes, group average score",Zucker FA/FA Rat Model [8]; score 0-5,2.8
same,"Kidney: degeneration/regeneration, tubules, group average score",Zucker FA/FA Rat Model [8]; severity score 0-5,2.3
same,"Kidney: dilatation, tubules, group average score",Zucker FA/FA Rat Model [8]; severity score 0-5,2.8
same,"Kidney: dilation, renal pelvis, group average score",Zucker FA/FA Rat Model [8]; severity score 0-5,2.3
same,"Kidney: inflammation, renal pelvis, group average score",Zucker FA/FA Rat Model [8]; severity score 0-5,0.8
same,"Kidney: mesangial expansion, group average score",Zucker FA/FA Rat Model [8]; severity score 0-5,2.1
same,"Kidney: mineralization, renal pelvis, group average score",Zucker FA/FA Rat Model [8]; severity score 0-5,0.2
same,"Liver: cystic hepatocytes degeneration with fibrosis, group average score",Zucker FA/FA Rat Model [8]; severity score 0-5,0.1
same,"Liver: hepatic focal infarction, group average score",Zucker FA/FA Rat Model [8]; severity score 0-5,0.2
same,"Liver: vacuolation, hepatocytes, macrovesicular, group average score",Zucker FA/FA Rat Model [8]; severity score 0-5,0.9
same,"Liver: vacuolation, hepatocytes, microvesicular, group average score",Zucker FA/FA Rat Model [8]; severity score 0-5,2.6
same,"Pancreas: fibrosis, islets, group average score",Zucker FA/FA Rat Model [8]; severity score 0-5,2.1
same,"Pancreas: hemorrhage/hemosiderin, islets, group average score",Zucker FA/FA Rat Model [8]; severity score 0-5,1.1
same,"Pancreas: hypertrophy, islets, group average score",Zucker FA/FA Rat Model [8]; severity score 0-5,3.8
same,"Pancreas: islet cell degeneration, group average score",Zucker FA/FA Rat Model [8]; severity score 0-5,1.4
same,"Pancreas: mononuclear cell infiltrate, islets, group average score",Zucker FA/FA Rat Model [8]; severity score 0-5,1.0
"N[C@@H](CC(=O)N1CCn2c(nnc2C(F)(F)F)C1)Cc1cc(F)c(F)cc1F [Sitagliptin phosphate monohydrate, 7-[(3R)-3-amino-1-oxo-4-(2,4,5-trifluorophenyl)buty]-5,6,7,8-tetrahydro-3-(trifluoromethyl)-1,2,4-triazolo[4,3-a]pyrazine phosphate (1:1) monohydrate]",Solubility in water,[9],soluble in water
